# Legend:
# Format in all cases: in vivo
# [1] = system: Coptotermes formosanus; test: Test Example 5: treated filter paper in acrylic cup, termite mortality after 7 days; conditions: 168 h
# Experimental: (§1) A filter paper having a diameter of 80 mm was placed in a cylindrical cup made of acrylic resin having a diameter of 80 mm and a height of 60 mm (i.e. a cup having a hole with a diameter of 10 mm formed in the bottom and having hard plaster (Dental Stone) set at the bottom in a thickness of 10 mm), and 1 ml of a solution containing a sample compound in a predetermined concentration, was dropped thereon. Then, nine termite workers and one termite soldier (Coptotermes formosanus) were released thereon. The cup was placed in a container having wet cotton laid over the bottom, and the container was maintained at room temperature of 25° C. for 7 days, whereupon the mortality of termites in the cup was examined.
# [2] = system: Reticulitermes speratus; test: Test Example 6: treated filter paper in acrylic cup, termite mortality after 7 days; conditions: 168 h
# Experimental: as §1, with “ten” for “nine”, “(Reticulitermes speratus)” for “(Coptotermes formosanus)”
# [3] = system: Priplaneta americana; test: Test Example 12: mouse feed poison bait, mortality with time; conditions: bait 1%
# Experimental: 1 g of feeding stuff for mice was treated with 0.5 ml of an acetone solution containing 10 mg of a sample compound and put in a constant temperature chamber at 40° C. for 20 hours to sufficiently evaporate acetone, whereby a poison bait chemical containing 1% of the sample compound was prepared. Then, this poison bait chemical was put into a cup together with a wet cotton, and 10 […] (Priplaneta americana) were released and kept at 25° C. in a breeding room, whereby the mortality was examined as the time passed.
# [4] = system: Reticulitermes speratus; test: Test Example 9: treated filter paper in acrylic cup, termite mortality 5 and 20 days later; conditions: 1000 ppm
# Experimental: as §1, with “ten” for “nine”, “(Reticulitermes speratus)” for “(Coptotermes formosanus)”, “C., and 5 days later and 20 days later,” for “C. for 7 days, whereupon”
# [5] = system: Coptotermes formosanus; test: Test Example 24: treated filter paper in Petri dish, termite mortality on 21st or 28th day
# Experimental: (§2) Mortality (%)=(Number of dead termite workers/15 termite workers)×100
# (§3) Further, by the Colby's formula, the theoretical value (%) of mortality can be calculated. In a case where the actual mortality (%) is higher than the theoretical value (%), it can be said that the composition of the present invention has a synergistic effect for controlling the house insect pest.
# A filter paper having a diameter of 80 mm was placed in a plastic Petri dish, and 1 ml of a pesticide solution having a predetermined concentration was dropped thereon, whereupon 10 termite workers (Coptotermes formosanus) were released, and a cover was put on the Petri dish. This plastic Petri dish was put in a container having wet cotton laid over the bottom and maintained at room temperature of 25° C. On 21 or 28th day after the treatment, the number of dead termites in the Petri dish was examined, and the mortality was calculated in the same manner as Test Example 1.
# [6] = system: Reticulitermes speratus; test: Test Example 1: treated filter paper in Petri dish, termite mortality after 13 days; conditions: 312 h
# Experimental: (§4) A filter paper having a diameter of 80 mm was placed in a plastic Petri dish, and 1 ml of a pesticide solution having a predetermined concentration was dropped thereon. After the treatment, the solvent was sufficiently evaporated, and then, 1 ml of distilled water was impregnated to the treated filter paper, whereupon 15 termite workers and one termite soldier (Reticulitermes speratus) were released. The plastic Petri dish was placed in a container having wet cotton laid over the bottom, and the container was maintained at 25° C. for 13 days, whereupon the number of dead termites in the Petri dish was examined, and the mortality was calculated by the following formula.
# as §2, §3
# [7] = system: Reticulitermes speratus; test: Test Example 3: treated filter paper in Petri dish, termite mortality after 37 days; conditions: Reticulitermes speratus, 888 h
# Experimental: as §2, §3
# as §4, with “concentration,” for “concentration”, “10” for “15”, “workers” for “workers and one termite soldier”, “37” for “13”, “in” for “by”, “same manner as in Test Example 1.” for “following formula.”
# [8] = system: Lasius japonicus; test: Test Example 11: powdered skim milk poison bait, controlling effect on ants 4 days later; conditions: bait concentration 1%
# Experimental: 1 g of powdered skim milk was treated with 1 ml of an acetone solution containing 10 mg of a sample compound and put in a constant temperature chamber at 40° C. for 20 hours to sufficiently evaporate acetone. In this manner, a poison bait chemical containing 1% of an active ingredient compound, was prepared. Then, this poison bait chemical was put into a cup together with a wet cotton, and 15 ants (Lasius japonicus) were released. 4 Days later, the mortality was examined. Here, when the mortality 4 days later was at least 40%, the controlling effect was rated to be positive.
# [9] = system: Reticulitermes speratus; test: Test Example 2: treated filter paper in Petri dish, termite mortality after 17 days; conditions: 408 h
# Experimental: as §2, §3
# as §4, with “concentration,” for “concentration”, “evaporated” for “evaporated,”, “17 days. Then,” for “13 days, whereupon”, “in” for “by”, “same manner as in Test Example 1.” for “following formula.”
smiles,measurement,setting,value
"CCOP(=S)(OCC)Oc1nc(Cl)c(Cl)cc1Cl [Chlorpyrifos, reference compound]",mortality at 500 ppm,[1],100%
same,mortality at 1000 ppm,[1],100%
same,mortality at 1000 ppm,[2],100%
same,Mortality,[3]; 1 Day later,100%
same,Mortality,[3]; 8 Days later,100%
same,Mortality,[3]; 48 Days later,100%
CCOC(=O)NN=C(Cc1ccc(C(F)(F)F)cc1)c1ccc(Cl)cc1 [Compound No. II-3],Mortality,[4]; 5 Days later,0%
same,Mortality,[4]; 20 Days later,100%
same,Mortality,[3]; 1 Day later,0%
same,Mortality,[3]; 8 Days later,100%
same,Mortality,[3]; 48 Days later,100%
"CC(=NN=C(Cc1ccc(C(F)(F)F)cc1)c1ccc(Cl)cc1)N(C)C [Compound No. II-1, [4′-chloro-2-(4-trifluoromethylphenyl)acetophenone]N′-[1-(dimethylamino)ethylidene]hydrazone]",Mortality,[4]; 5 Days later,0%
same,Mortality,[4]; 20 Days later,100%
Cc1c(COC(=O)[C@@H]2[C@H](/C=C(\Cl)C(F)(F)F)C2(C)C)cccc1-c1ccccc1 (racemic) [Bifenthrin],Mortality,"[5]; Bifenthrin 0.25 ppm alone, 28th day",0%
same,mortality at 0.25 ppm,[5]; Coptotermes formosanus,0%
same,mortality at 0.5 ppm,[5]; Coptotermes formosanus,10%
same,mortality at 1 ppm,[5]; Coptotermes formosanus,40%
"CC(N)=NN=C(Cc1ccc(C(F)(F)F)cc1)c1ccc(Cl)cc1 [Compound No. II-7, [4′-chloro-2-(4-trifluoromethylphenyl)acetophenone]N′-[1-aminoethylidene]hydrazone]",Mortality,[4]; 5 Days later,100%
same,Mortality,[4]; 20 Days later,100%
O=C(NC(=O)c1c(F)cccc1F)Nc1cc(Cl)c(Oc2ncc(C(F)(F)F)cc2Cl)c(Cl)c1 [Chlorfluazuron],mortality at 500 ppm,[5]; Coptotermes formosanus,20%
same,mortality at 1000 ppm,[5]; Coptotermes formosanus,30%
same,mortality at 2000 ppm,[5]; Coptotermes formosanus,30%
same,mortality at 1000 ppm,[6],0%
same,mortality at 2000 ppm,[6],33%
same,mortality at 4000 ppm,[6],53%
same,mortality at 8000 ppm,[6],60%
same,mortality at 500 ppm,[7]; Chlorfluazuron 500 ppm alone,30%
same,mortality at 1000 ppm,[7]; Chlorfluazuron 1000 ppm alone,50%
same,mortality at 2000 ppm,[7]; Chlorfluazuron 2000 ppm alone,50%
same,mortality at 4000 ppm,[7]; Chlorfluazuron 4000 ppm alone,50%
"CC(=NN=C(Cc1ccc(C(C)(C)C)cc1)c1ccc(C)cc1)N(C)C [Compound No. II-6, [4′-methyl-2-(4-tert-butylphenyl)acetophenone]N′-[1-(dimethylamino)ethylidene]hydrazone]",Mortality,[4]; 5 Days later,70%
same,Mortality,[4]; 20 Days later,100%
same,Controlling effect,[8],"Positive (when the mortality 4 days later was at least 40%, the controlling effect was rated to be positive)"
O=C(NC(=O)c1c(F)cccc1F)Nc1cc(Cl)c(OC(F)(F)C(F)F)c(Cl)c1 [Hexaflumuron],mortality at 1000 ppm,[9],40%
same,mortality at 2000 ppm,[9],40%
same,mortality at 4000 ppm,[9],20%
same,mortality at 8000 ppm,[9],33%
